Results as given in patent publication EP0120359A1, “Tetrahydrothiophenone derivative active in respiratory system affections” (YASON S.r.l, priority 1983, dated 1984).
Like-named read-outs stand apart in the source and are kept apart here.

Key:
Sprague-Dawley rats = experiment: Bronchosecretogogue activity, Mawatari test; format: in vivo; details: rat
Excerpt: The bronchosecretogogue activity of YS-869 was evalued by the test of Mawatari in Sprague-Dawley rats (Mawatari H. "Experimental Studies on the expectorant action of several drugs" - Kagoshima Daiga ken Igaken Zasshi. 27, 561, 1976), in comparison with known drugs.
This method consists in determinating the amount of […] eliminated with the fluid in the respiratory tract.

rat paw = experiment: Antiinflammatory activity, carrageenin oedema in rat paw; format: in vivo; details: for Paw volume 2 h / Paw volume 4 h / Paw volume 6 h / Paw volume 8 h / Paw volume 24 h / Paw volume Basal: mean ± S.E.; for AREA % M±E.S.: area of the paw volume curve; for AREA Inhibition versus control: oedema inhibiting activity
Description: The antiinflammatory activity of YS-869 in comparison with acetylsalicylic acid was evaluated by the test of oedema induced by carrageening injection in rat paw (Winter, Rissly, Ness.; Proc. Soc. Exp. Biol. Med., Ill, 544-47 - 1962).

rats = format: in vivo; details: 200 mg/kg p.o.
Description: The gastro-injuring activity was determined by administering rats with equimolecular dosages of YS-869 and acetylsalicylic acid (252 mg/kg and 200 mg/kg respectively).

rabbit = experiment: Antitussive activity, citric acid induced cough; format: in vivo
Excerpt: The antitussive activity of YS-869 was evalued by the citric acid test in the rabbit (Boura et al., Prog. Brit. Pharmac. Soc. Communications, April 1970), in comparison with codeine.
Such method consists in counting the coughs stro kes caused in the animal by the nebulization of a citric acid solution.

[1] = Solubility in organic solvents; details: common organic solvents

Nc1c(Br)cc(Br)cc1CN[C@H]1CC[C@H](O)CC1 [AMBROXOL, Ambroxol]
Fl Na (Sprague-Dawley rats; 50 mg/kg i.p.): 0.36 ± 0.037 µg/mL | Fl Na % increase versus contr. (Sprague-Dawley rats; 50 mg/kg i.p.): 28.6%

CC(=O)Oc1ccccc1C(=O)O [Acetyl-salicy-lic acid, acetylsalicylic acid]
Paw volume 2 h (rat paw; 200 mg/kg p.o.): 43.5 ±1.5 ml/10 | Paw volume 4 h (rat paw; 200 mg/kg p.o.): 49.3 ±2.0 ml/10 | Paw volume 6 h (rat paw; 200 mg/kg p.o.): 51.4 ±1.7 ml/10 | Paw volume 8 h (rat paw; 200 mg/kg p.o.): 51.5 ±2.0 ml/10 | Paw volume 24 h (rat paw; 200 mg/kg p.o.): 42.8 ±1.7 ml/10 | AREA % M±E.S. (rat paw; 200 mg/kg p.o.): 151.38 ±13.1% | Paw volume Basal (rat paw; 200 mg/kg p.o.): 36.1 ±1.1 ml/10 | AREA Inhibition versus control (rat paw; 200 mg/kg p.o.): 26.94% | ULCERS (gastric ulcers average size) (rats): 27.7±6.37 mm | ULCERS (gastric ulcers average size) (rats; listed as acetylsalicylic acid): 27.7 mm

COc1ccc2c3c1O[C@H]1[C@@H](O)C=C[C@H]4[C@@H](C2)N(C)CC[C@@]341 [CODEINE, codeine]
% inhibition versus control (rabbit; 25 mg/kg i.p.): 70.4%

N[C@@H](CSCC(=O)O)C(=O)O [S-CARBOXY-METHYL-CY-STEINE, S-carboxymethyl-cysteine]
Fl Na (Sprague-Dawley rats; 500 mg/kg i.p.): 0.41 ± 0.036 µg/mL | Fl Na % increase versus contr. (Sprague-Dawley rats; 500 mg/kg i.p.): 46.4%

O=C(NC1CCSC1=O)c1cccs1 (stereo not drawn) [YS-869, N-(2-thenoyl)-N-(2-keto-2,3,4,5-tetrahydro-thiophene-3-yl)amine]
Paw volume 2 h (rat paw; 252 mg/kg p.o.): 48.2 ±1.2 ml/10 | Paw volume 4 h (rat paw; 252 mg/kg p.o.): 54.1 ±2.3 ml/10 | Paw volume 6 h (rat paw; 252 mg/kg p.o.): 52.1 ±2.9 ml/10 | Paw volume 8 h (rat paw; 252 mg/kg p.o.): 51.4 ±2.5 ml/10 | Paw volume 24 h (rat paw; 252 mg/kg p.o.): 41 ±1.4 ml/10 | AREA % M±E.S. (rat paw; 252 mg/kg p.o.): 165.21 ±13.1% | Paw volume Basal (rat paw; 252 mg/kg p.o.): 36.8 ±1.0 ml/10 | AREA Inhibition versus control (rat paw; 252 mg/kg p.o.): 20.26% | solubility [1]: soluble in common organic solvents | % inhibition versus control (rabbit; 100 mg/kg i.p.): 21.5% | Fl Na (Sprague-Dawley rats; 500 mg/kg i.p.): 0.42 ± 0.0450 µg/mL | Fl Na % increase versus contr. (Sprague-Dawley rats; 500 mg/kg i.p., 500 mg/kg): 50%
